Test results published in ChEMBL document CHEMBL1201862, “PubChem BioAssay data set” (2004).
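How tested: cells in 96-well plates exposed to compound for 48 hours at five concentrations. At the GI50, growth is halved.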 The source made the active and inactive calls. No stated cut-off is given here; in the data, active = GI50 up to about 1.1 µM and inactive = higher.

Key:
Assay in all cases: DTP human tumour cell line panel, 48 h
CAKI-1 = tested on: CAKI-1
SR = tested on: SR
T47D = tested on: T47D
NCI-H226 = tested on: NCI-H226
COLO 205 = tested on: COLO 205
NCI-H23 = tested on: NCI-H23
MDA-MB-231 = tested on: MDA-MB-231
HCT-116 = tested on: HCT-116
SNB-19 = tested on: SNB-19
IGROV-1 = tested on: IGROV-1
SK-MEL-5 = tested on: SK-MEL-5
SF-268 = tested on: SF-268
MDA-MB-435 = tested on: MDA-MB-435
CCRF-CEM = tested on: CCRF-CEM
PC-3 = tested on: PC-3
RPMI-8226 = tested on: RPMI-8226
EKVX = tested on: EKVX
HCC 2998 = tested on: HCC 2998
Malme-3M = tested on: Malme-3M
RXF 393 = tested on: RXF 393

Structure (SMILES)	GI50 (CAKI-1)	GI50 (SR)	GI50 (T47D)	GI50 (NCI-H226)	GI50 (COLO 205)	GI50 (NCI-H23)	GI50 (MDA-MB-231)	GI50 (HCT-116)	GI50 (SNB-19)	GI50 (IGROV-1)	GI50 (SK-MEL-5)	GI50 (SF-268)	GI50 (MDA-MB-435)	GI50 (CCRF-CEM)	GI50 (PC-3)	GI50 (RPMI-8226)	GI50 (EKVX)	GI50 (HCC 2998)	GI50 (Malme-3M)	GI50 (RXF 393)
COC(=O)c1ccc(NC(=O)c2cc3c(cc2Br)OCO3)o1	> 100 µM (inactive)	41.4 µM (inactive)	90.6 µM (inactive)	> 100 µM (inactive)	> 100 µM (inactive)	> 100 µM (inactive)	> 100 µM (inactive)	> 100 µM (inactive)	> 100 µM (inactive)	> 100 µM (inactive)	> 100 µM (inactive)	0.471 µM (active)	32.7 µM (inactive)	> 100 µM (inactive)	> 100 µM (inactive)	> 100 µM (inactive)	> 100 µM (inactive)	> 100 µM (inactive)		
C/C(=N/NC(=S)NCCc1ccccn1)c1cnccn1	14.1 µM (inactive)	2.44 µM (inactive)	6.05 µM (inactive)		3.8 µM (inactive)	38.6 µM (inactive)	26.2 µM (inactive)	23.2 µM (inactive)	54.7 µM (inactive)	19 µM (inactive)	27 µM (inactive)	38.5 µM (inactive)	53.3 µM (inactive)	2.64 µM (inactive)	48.8 µM (inactive)	13.3 µM (inactive)	10.9 µM (inactive)	40.4 µM (inactive)	6.37 µM (inactive)	
CC(C)c1ccc(/C=C2\CSCC3=C2N=C2SCC(=O)N2C3c2ccc(C(C)C)cc2)cc1 (stereo not given)	> 100 µM (inactive)	77.4 µM (inactive)	57.9 µM (inactive)	> 100 µM (inactive)	> 100 µM (inactive)	> 100 µM (inactive)	> 100 µM (inactive)	> 100 µM (inactive)		> 100 µM (inactive)	> 100 µM (inactive)	> 100 µM (inactive)	> 100 µM (inactive)	68.1 µM (inactive)	> 100 µM (inactive)	80.7 µM (inactive)	> 100 µM (inactive)	> 100 µM (inactive)	96.4 µM (inactive)	
CCCCOc1c(C(=O)O)cc(Br)cc1C(=O)O	> 100 µM (inactive)		> 100 µM (inactive)	> 100 µM (inactive)	> 100 µM (inactive)	> 100 µM (inactive)	> 100 µM (inactive)	91.6 µM (inactive)	> 100 µM (inactive)	> 100 µM (inactive)	> 100 µM (inactive)	> 100 µM (inactive)	> 100 µM (inactive)		> 100 µM (inactive)	> 100 µM (inactive)	> 100 µM (inactive)	> 100 µM (inactive)	> 100 µM (inactive)	> 100 µM (inactive)
N#C/C(N)=C(C#N)/N=C/NCCO	> 100 µM (inactive)	> 100 µM (inactive)	> 100 µM (inactive)	> 100 µM (inactive)	> 100 µM (inactive)	> 100 µM (inactive)	> 100 µM (inactive)	> 100 µM (inactive)	> 100 µM (inactive)	> 100 µM (inactive)	> 100 µM (inactive)	> 100 µM (inactive)	> 100 µM (inactive)	> 100 µM (inactive)	> 100 µM (inactive)	> 100 µM (inactive)	> 100 µM (inactive)	> 100 µM (inactive)	> 100 µM (inactive)	
O=[N+]([O-])C(=C(Nc1ccccc1)Nc1ccccc1)C(Cl)=C(Cl)Cl	17.1 µM (inactive)		19.3 µM (inactive)	19 µM (inactive)	17.5 µM (inactive)	13.6 µM (inactive)	17.3 µM (inactive)	12.5 µM (inactive)	17.9 µM (inactive)	12.9 µM (inactive)	13.8 µM (inactive)	18.7 µM (inactive)	15.3 µM (inactive)	8.04 µM (inactive)	15.2 µM (inactive)	32.8 µM (inactive)	15.7 µM (inactive)	19.5 µM (inactive)	19.6 µM (inactive)	15.8 µM (inactive)
CCCCNCCCNCCCNC(=O)c1csc(-c2csc(CCNC(=O)C(NC(=O)C(C)C(O)C(C)NC(=O)C(NC(=O)c3nc(C(CC(N)=O)NCC(N)C(N)=O)nc(N)c3C)C(OC3OC(CO)C(O)C(O)C3OC3OC(CO)C(O)C(OC(N)=O)C3O)c3c[nH]cn3)C(C)O)n2)n1 (stereo not given)	0.362 µM (active)	6.44 µM (inactive)	12.9 µM (inactive)	0.175 µM (active)	9.44 µM (inactive)	0.083 µM (active)	30.3 µM (inactive)	0.0998 µM (active)	6.89 µM (inactive)	4.04 µM (inactive)	0.247 µM (active)	0.253 µM (active)	18.7 µM (inactive)	15.6 µM (inactive)	23.6 µM (inactive)	> 50 µM (inactive)	14 µM (inactive)	43.7 µM (inactive)	0.294 µM (active)	
COc1cccc(/C=C2\S/C(=N/Nc3nc(-c4ccc([N+](=O)[O-])cc4)cs3)NC2=O)c1O	25 µM (inactive)	12 µM (inactive)	4.66 µM (inactive)	14.9 µM (inactive)	16.4 µM (inactive)	11.7 µM (inactive)	18.4 µM (inactive)	13.1 µM (inactive)	5.19 µM (inactive)	11.3 µM (inactive)	12.2 µM (inactive)	5 µM (inactive)	19.5 µM (inactive)	9.89 µM (inactive)	16.1 µM (inactive)	10.4 µM (inactive)	17.4 µM (inactive)	17.5 µM (inactive)	20.5 µM (inactive)	
C/C(=N\NC(=O)Nc1ccccc1Cl)c1ccc(O)cc1	> 100 µM (inactive)	4.34 µM (inactive)	> 100 µM (inactive)	> 100 µM (inactive)	> 100 µM (inactive)	> 100 µM (inactive)	> 100 µM (inactive)	48.6 µM (inactive)	> 100 µM (inactive)	> 100 µM (inactive)	> 100 µM (inactive)	> 100 µM (inactive)	> 100 µM (inactive)	> 100 µM (inactive)	> 100 µM (inactive)	> 100 µM (inactive)	> 100 µM (inactive)	> 100 µM (inactive)	> 100 µM (inactive)	
C=C1C(=O)O[C@H]2[C@H]([C@H](C)CCCC(C)=O)O[C@H]([C@@]3(C)CCC(=O)O3)C[C@@H]12	18.3 µM (inactive)	55.6 µM (inactive)	76 µM (inactive)	31.3 µM (inactive)	40.6 µM (inactive)	43.4 µM (inactive)	> 100 µM (inactive)	22.3 µM (inactive)	> 100 µM (inactive)	> 100 µM (inactive)	> 100 µM (inactive)	0.0316 µM (active)	38.5 µM (inactive)	26.9 µM (inactive)	> 100 µM (inactive)	31.8 µM (inactive)	79.3 µM (inactive)	68.1 µM (inactive)	18.4 µM (inactive)	
CN(C)c1ccc(/N=N/c2ccncc2)cc1	> 100 µM (inactive)		> 100 µM (inactive)	64.4 µM (inactive)	56.6 µM (inactive)	> 100 µM (inactive)	> 100 µM (inactive)	> 100 µM (inactive)	> 100 µM (inactive)	> 100 µM (inactive)	67 µM (inactive)	85.7 µM (inactive)	28.8 µM (inactive)	> 100 µM (inactive)	> 100 µM (inactive)	47.1 µM (inactive)	18.5 µM (inactive)	22.6 µM (inactive)	> 100 µM (inactive)	> 100 µM (inactive)
